# From US11955208B2, “Computational systems and methods for improving the accuracy of drug toxicity predictions” (Cornell University, priority 2016, dated 2024)
# How the values were obtained:
# breast cancer patients = conditions: recent clinical trials; cited from earlier work
# [1] = system: D2-like (DRD2/3/4) subfamily of dopamine receptors; conditions: arrestin recruitment
# Procedure: (§1) To test the target prediction, in vitro profiling of GPCR activity using a hetereologous reporter assay for arrestin recruitment, a hallmark of GPCR activation was performed.
# [2] = system: short and long isoforms of DRD2; conditions: arrestin recruitment
# Procedure: as §1
# [3] = system: D1-like (DRD1/5) subfamily of dopamine receptors; test: GPCR profiling, heterologous reporter assay for arrestin recruitment; assay type: cell-based
# Procedure: as §1
# other GPCRs = test: as above; assay type: cell-based; conditions: under the evaluated conditions
# Procedure: as §1
# DRD2L [4] = target: T1, DRD2L (Homo sapiens, UniProt P14416)
# T1 sequence (P14416 whole entry): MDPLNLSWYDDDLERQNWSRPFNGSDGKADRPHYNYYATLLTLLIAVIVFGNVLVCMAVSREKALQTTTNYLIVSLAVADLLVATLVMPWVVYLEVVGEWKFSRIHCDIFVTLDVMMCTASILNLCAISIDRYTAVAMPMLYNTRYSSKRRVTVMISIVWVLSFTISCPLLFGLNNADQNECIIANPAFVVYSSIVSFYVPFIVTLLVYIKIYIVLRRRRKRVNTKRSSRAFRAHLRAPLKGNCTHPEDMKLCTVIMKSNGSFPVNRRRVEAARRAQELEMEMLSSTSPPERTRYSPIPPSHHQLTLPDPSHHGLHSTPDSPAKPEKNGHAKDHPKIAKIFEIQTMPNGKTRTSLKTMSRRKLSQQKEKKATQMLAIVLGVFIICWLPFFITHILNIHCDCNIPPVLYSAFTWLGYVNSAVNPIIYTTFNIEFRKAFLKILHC
# [5] = system: nuclear hormone receptors, the kinome, or other drug targets of FDA-approved cancer therapies
# DRD2L [6] = target: T1, DRD2L; test: antagonism of arrestin recruitment to DRD2L, Gaddam/Schild EC50 shift analysis; assay type: cell-based; design: expressed in transfected cells; conditions: dopamine completely reversed dose-dependent antagonism of up to 100 uM ONC201
# Procedure: as §1
# [7] = in vivo; cited from earlier work
smiles,measurement,setting,value
C=C1C[C@@H]2CC[C@@]34C[C@H]5O[C@H]6[C@@H](O3)[C@H]3O[C@H](CC[C@@H]3O[C@H]6[C@H]5O4)CC(=O)C[C@@H]3[C@@H](OC)[C@@H](C[C@H](O)CN)O[C@H]3C[C@H]3O[C@@H](CC[C@@H]1O2)C[C@@H](C)C3=C [Eribulin],breast cancer patients showing any detectable response after treatment,breast cancer patients,< 50%
Cc1ccccc1CN1C(=O)C2=C(CCN(Cc3ccccc3)C2)N2CCN=C12 [ONC201],antagonism of D2-like dopamine receptors,[1],selectively antagonizes
same,antagonism of DRD2 short and long isoforms,[2],antagonized
same,antagonism of D1-like dopamine receptors,[3],not D1-like
same,antagonism of other GPCRs,other GPCRs,no observed antagonism
same,cAMP modulation in response to compound,DRD2L [4],Confirmatory results
same,"interactions with nuclear hormone receptors, kinome, other cancer drug targets",[5],no significant interactions
same,mode of antagonism of DRD2L,DRD2L [6],"direct, competitive antagonism"
CC(C)C[C@H](NC(=O)[C@H](Cc1ccccc1)NC(=O)c1cnccn1)B(O)O [bortezomib],associated adverse event,[7],peripheral neuropathy
CC(=O)O[C@@]12CO[C@@H]1C[C@H](O)[C@@]1(C)C(=O)[C@H](O)C3=C(C)[C@@H](OC(=O)[C@H](O)[C@@H](NC(=O)OC(C)(C)C)c4ccccc4)C[C@@](O)([C@@H](OC(=O)c4ccccc4)[C@H]21)C3(C)C [docetaxel],associated adverse event,[7],neutropenia
CN(CCOc1ccc(CC2SC(=O)NC2=O)cc1)c1ccccn1 (centres unmarked) [rosiglitazone],associated adverse event,[7],elevated risk of heart attack
